Values of other authors, collected in publication PMC10555500, “Evaluation of the Antiproliferative Properties of CpRu Complexes Containing N-Methylated Triazaphosphaadamantane Derivatives” (Bioinorganic Chemistry and Applications, 2023).

What was measured:
Design in all cases: method as in doi:10.1021/acsomega.8b02849, PMID 31241925
Details in all cases: positive control; ref [44], [45]; cited from earlier work
[1] = test system: MDA-MB-231 breast cancer cells
[2] = test system: MCF-7 breast cancer cells
[3] = test system: normal human fibroblasts (HDF)

N.N.[Cl][Pt][Cl] [Cisplatin, cis-[PtCl2(NH3)2]]
IC50 [1]: > 100 µM | IC50 [2]: 38 ± 1.4 µM | IC50 [3]: ~100 µM
